For the assay, the target named is HSD17B13 (Homo sapiens (Human), UniProt Q7Z5P4). Briefly: HSD17B13 enzymatic inhibition assay (150 nM or 50 nM HSD17B13). The format is biochemical. To be noted: 50 nM HSD17B13; read-out: Inhibition of 50 nM of HSD17B13 IC50.

Some results are limits rather than exact numbers.

Chain of HSD17B13 (Q7Z5P4 other isoform, or with tags, fused parts or gaps): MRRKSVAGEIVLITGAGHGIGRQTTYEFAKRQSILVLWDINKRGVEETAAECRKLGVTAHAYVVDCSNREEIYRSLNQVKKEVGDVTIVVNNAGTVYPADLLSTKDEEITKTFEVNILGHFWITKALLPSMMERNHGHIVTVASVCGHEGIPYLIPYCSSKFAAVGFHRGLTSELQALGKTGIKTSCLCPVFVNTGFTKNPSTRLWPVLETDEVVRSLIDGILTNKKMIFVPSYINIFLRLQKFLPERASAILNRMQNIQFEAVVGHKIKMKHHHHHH

In the case of `Cc1cc(C(F)(F)F)[nH]c(=O)c1C(=O)NC1c2ccc(Cl)cc2Oc2cc(Cl)ccc21` [Compound 203, N-(3,6-dichloro-9H-xanthen-9-yl)-4-methyl-2-oxo-6-(trifluoromethyl)-1,2-dihydropyridine-3-carboxamide], the IC50 is 1.05 µM.
Take `CCc1cc(C(F)(F)F)[nH]c(=O)c1C(=O)NC1c2ccc(C)cc2Oc2cccc(C)c21` (stereo not drawn) [Compound 204, N-(1,6-dimethyl-9H-xanthen-9-yl)-4-ethyl-2-oxo-6-(trifluoromethyl)-1,2-dihydropyridine-3-carboxamide]: the half-inhibitory concentration (IC50) is > 10 µM.
As to `CCc1cc(C(F)(F)F)[nH]c(=O)c1C(=O)NC1c2ccc(Cl)cc2Oc2cccc(Cl)c21` (stereo not drawn) [Compound 205, N-(1,6-dichloro-9H-xanthen-9-yl)-4-ethyl-2-oxo-6-(trifluoromethyl)-1,2-dihydropyridine-3-carboxamide], the half-inhibitory concentration (IC50) was > 10 µM.
Under `CCc1cc(C(F)(F)F)[nH]c(=O)c1C(=O)NC1c2ccc(Cl)cc2Oc2cc(Cl)ccc21` [Compound 206, N-(3,6-dichloro-9H-xanthen-9-yl)-4-ethyl-2-oxo-6-(trifluoromethyl)-1,2-dihydropyridine-3-carboxamide] stands 0.29 µM; under `CCCc1cc(C(F)(F)F)[nH]c(=O)c1C(=O)NC1c2ccc(C)cc2Oc2cc(C)ccc21` [Compound 207, N-(3,6-dimethyl-9H-xanthen-9-yl)-2-oxo-4-propyl-6-(trifluoromethyl)-1,2-dihydropyridine-3-carboxamide], 0.18 µM; under `CCCc1cc(C(F)(F)F)[nH]c(=O)c1C(=O)NC1c2ccc(C)cc2Oc2cccc(C)c21` (stereo not drawn) [Compound 208, N-(1,6-dimethyl-9H-xanthen-9-yl)-2-oxo-4-propyl-6-(trifluoromethyl)-1,2-dihydropyridine-3-carboxamide], > 10 µM.
Turning to `CCCc1cc(C(F)(F)F)[nH]c(=O)c1C(=O)NC1c2ccc(Cl)cc2Oc2cccc(Cl)c21` (stereo not drawn) [Compound 209, N-(1,6-dichloro-9H-xanthen-9-yl)-2-oxo-4-propyl-6-(trifluoromethyl)-1,2-dihydropyridine-3-carboxamide], the half-maximal inhibitory concentration (IC50) was found to be 3.44 µM.
With `CCCc1cc(C(F)(F)F)[nH]c(=O)c1C(=O)NC1c2ccc(Cl)cc2Oc2cc(Cl)ccc21` [Compound 210, N-(3,6-dichloro-9H-xanthen-9-yl)-2-oxo-4-propyl-6-(trifluoromethyl)-1,2-dihydropyridine-3-carboxamide], the IC50 came to 0.93 µM.
`Cc1cc(C(=O)NC2c3ccc(Cl)cc3Oc3cccc(Cl)c32)c(=O)[nH]c1C(F)(F)F` (stereo not drawn) [Compound 211, N-(1,6-dichloro-9H-xanthen-9-yl)-5-methyl-2-oxo-6-(trifluoromethyl)-1,2-dihydropyridine-3-carboxamide]: the IC50 is 0.87 µM.
The result for `CCc1ccc(C(=O)NC2c3ccccc3-c3ccccc32)c(=O)[nH]1` [Compound 212, 6-ethyl-N-(9H-fluoren-9-yl)-2-oxo-1,2-dihydropyridine-3-carboxamide] reads > 10 µM; that for `Cc1cc(C(F)(F)F)[nH]c(=O)c1C(=O)NC1c2ccccc2-c2ccccc21` [Compound 213, N-(9H-fluoren-9-yl)-4-methyl-2-oxo-6-(trifluoromethyl)-1,2-dihydropyridine-3-carboxamide], 2.24 µM; that for `Cc1c(C(F)(F)F)[nH]c(=O)c(C(=O)NC2c3ccccc3-c3ccccc32)c1C` [Compound 214, N-(9H-fluoren-9-yl)-4,5-dimethyl-2-oxo-6-(trifluoromethyl)-1,2-dihydropyridine-3-carboxamide], > 10 µM.
As to `O=C(NCc1ccc(Cl)cc1Oc1cccc(Cl)c1)c1ccc(C(F)(F)F)[nH]c1=O` [Compound 216, N-(4-chloro-2-(3-chlorophenoxy)benzyl)-2-oxo-6-(trifluoromethyl)-1,2-dihydropyridine-3-carboxamide], the IC50 was determined as 3.19 µM.
On to `O=C(NCC1c2ccccc2-c2ccccc21)c1ccc(C(F)(F)F)[nH]c1=O` [Compound 217, N-((9H-fluoren-9-yl)methyl)-2-oxo-6-(trifluoromethyl)-1,2-dihydropyridine-3-carboxamide], for which the IC50 is 8.31 µM.
With `Cc1ccc(C(C)NC(=O)c2ccc(C(F)(F)F)[nH]c2=O)cc1` (stereo not drawn) [Compound 218], the IC50 came to 9.55 µM.
For `O=C(NC(c1ccc(Cl)cc1)c1ccncn1)c1ccc(C(F)(F)F)[nH]c1=O` (stereo not drawn) [Compound 219, N-((4-chlorophenyl)(pyrimidin-4-yl)methyl)-2-oxo-6-(trifluoromethyl)-1,2-dihydropyridine-3-carboxamide], the IC50 was > 10 µM.
For `O=C(NC(c1ccc(Cl)cc1)c1cncnc1)c1ccc(C(F)(F)F)[nH]c1=O` (stereo not drawn) [Compound 220, N-((4-chlorophenyl)(pyrimidin-5-yl)methyl)-2-oxo-6-(trifluoromethyl)-1,2-dihydropyridine-3-carboxamide], the IC50 is > 10 µM.
Turning to `O=C(NC(c1ccccc1)c1cccc(=O)[nH]1)c1ccc(C(F)(F)F)[nH]c1=O` (stereo not drawn) [Compound 221, 2-oxo-N-((6-oxo-1,6-dihydropyridin-2-yl)(phenyl)methyl)-6-(trifluoromethyl)-1,2-dihydropyridine-3-carboxamide], the IC50 was determined as 6.4 µM.
The result for `CC(NC(=O)c1ccc(C(F)(F)F)[nH]c1=O)c1ccc(Cl)cc1Oc1cccc(Cl)c1` (stereo not drawn) [Compound 222, N-(1-(4-chloro-2-(3-chlorophenoxy)phenyl)ethyl)-2-oxo-6-(trifluoromethyl)-1,2-dihydropyridine-3-carboxamide] reads 2.17 µM; that for `O=C(Nc1cccc(O)c1)c1ccc(C(F)(F)F)[nH]c1=O` [Compound 224, N-(3-hydroxyphenyl)-2-oxo-6-(trifluoromethyl)-1,2-dihydropyridine-3-carboxamide], > 10 µM; that for `CCc1cccc(NC(=O)c2ccc(C(F)(F)F)[nH]c2=O)c1` [Compound 225, N-(3-ethylphenyl)-2-oxo-6-(trifluoromethyl)-1,2-dihydropyridine-3-carboxamide], 4.65 µM.
On to `Cc1cccc(NC(=O)c2ccc(C(F)(F)F)[nH]c2=O)c1` [Compound 226, 2-oxo-N-(m-tolyl)-6-(trifluoromethyl)-1,2-dihydropyridine-3-carboxamide], for which the IC50 was determined as 8.05 µM.
Take `O=C(Nc1cccc(Cl)c1)c1ccc(C(F)(F)F)[nH]c1=O` [Compound 227, N-(3-chlorophenyl)-2-oxo-6-(trifluoromethyl)-1,2-dihydropyridine-3-carboxamide]: the IC50 was 9.85 µM.
On to `O=C(Nc1cccc2cc(O)ccc12)c1ccc(C(F)(F)F)[nH]c1=O` [Compound 229, N-(6-hydroxynaphthalen-1-yl)-2-oxo-6-(trifluoromethyl)-1,2-dihydropyridine-3-carboxamide], for which the IC50 was 1.4 µM.
Under `Cc1ccc2c(c1O)CCCC2NC(=O)c1ccc(C(F)(F)F)[nH]c1=O` (stereo not drawn) [Compound 231, N-(5-hydroxy-6-methyl-1,2,3,4-tetrahydronaphthalen-1-yl)-2-oxo-6-(trifluoromethyl)-1,2-dihydropyridine-3-carboxamide] stands 0.03 µM; under `COc1c(C)ccc2c1CCCC2NC(=O)c1ccc(C(F)(F)F)[nH]c1=O` (stereo not drawn) [Compound 232, N-(5-methoxy-6-methyl-1,2,3,4-tetrahydronaphthalen-1-yl)-2-oxo-6-(trifluoromethyl)-1,2-dihydropyridine-3-carboxamide], 2.69 µM; under `Cc1ccc2c(c1)C(NC(=O)c1ccc(C(F)(F)F)[nH]c1=O)CCO2` (stereo not drawn) [Compound 233, N-(6-methylchroman-4-yl)-2-oxo-6-(trifluoromethyl)-1,2-dihydropyridine-3-carboxamide], 1.32 µM.
Regarding `Cc1ccc2c(c1)C(NC(=O)c1ccc(C(F)(F)F)[nH]c1=O)CCS2` (stereo not drawn) [Compound 236, N-(6-methylthiochroman-4-yl)-2-oxo-6-(trifluoromethyl)-1,2-dihydropyridine-3-carboxamide], the IC50 amounted to 0.74 µM.
With `Cc1ccc2c(c1)C(NC(=O)c1ccc(C(F)(F)F)[nH]c1=O)CC2` (stereo not drawn) [Compound 237, N-(6-methyl-2,3-dihydro-1H-inden-1-yl)-2-oxo-6-(trifluoromethyl)-1,2-dihydropyridine-3-carboxamide], the IC50 is 0.49 µM.
In the case of `Cc1ccc2c(c1)CCC2NC(=O)c1ccc(C(F)(F)F)[nH]c1=O` (stereo not drawn) [Compound 238, N-(5-methyl-2,3-dihydro-1H-inden-1-yl)-2-oxo-6-(trifluoromethyl)-1,2-dihydropyridine-3-carboxamide], the IC50 came out at 0.68 µM.
Turning to `COc1ccc2c(c1)Oc1cc(OC)ccc1C2NC(=O)c1cc(-c2ccccc2)c(C(F)(F)F)[nH]c1=O` [Compound 239, N-(3,6-dimethoxy-9H-xanthen-9-yl)-2-oxo-5-phenyl-6-(trifluoromethyl)-1,2-dihydropyridine-3-carboxamide], the IC50 is 0.1 µM.
Under `COc1ccc2c(c1)Oc1cc(OC)ccc1C2NC(=O)c1cc(C)c(C(F)(F)F)[nH]c1=O` [Compound 240, N-(3,6-dimethoxy-9H-xanthen-9-yl)-5-methyl-2-oxo-6-(trifluoromethyl)-1,2-dihydropyridine-3-carboxamide] stands 0.11 µM; under `COc1ccc2c(c1)Sc1ccccc1C2NC(=O)c1ccc(C(F)(F)F)[nH]c1=O` (stereo not drawn) [Compound 242, N-(3-methoxy-9H-thioxanthen-9-yl)-2-oxo-6-(trifluoromethyl)-1,2-dihydropyridine-3-carboxamide], 0.07 µM; under `COc1ccccc1C(NC(=O)c1ccc(C(F)(F)F)[nH]c1=O)c1cccc(C)c1` (stereo not drawn) [Compound 243, N-((2-methoxyphenyl)(m-tolyl)methyl)-2-oxo-6-(trifluoromethyl)-1,2-dihydropyridine-3-carboxamide], 2.16 µM.
For `COc1ccccc1C(NC(=O)c1ccc(C(F)(F)F)[nH]c1=O)c1ccc(C)cc1` (stereo not drawn) [Compound 244, N-((2-methoxyphenyl)(p-tolyl)methyl)-2-oxo-6-(trifluoromethyl)-1,2-dihydropyridine-3-carboxamide], the IC50 is 0.29 µM.
Turning to `CSc1ccccc1C(NC(=O)c1ccc(C(F)(F)F)[nH]c1=O)c1cccc(C)c1` (stereo not drawn) [Compound 245, N-((2-(methylthio)phenyl)(m-tolyl)methyl)-2-oxo-6-(trifluoromethyl)-1,2-dihydropyridine-3-carboxamide], the IC50 came to 1.08 µM.

(Values after patent US11957687B2 (REGENERON PHARMACEUTICALS, INC., priority 2019, dated 2024).)
